Assays:
[1] = tested on: ConA hepatitis mouse model; assay: Survival rate of ConA hepatitis mouse model; type: in vivo, C57BL/6 mice; conditions: ConA 25 mg/kg i.v.; 96-hour observation; gavage, extract 15 mg/kg, actein and deoxyactein 5 mg/kg; model group 10%
Experimental: Test materials: ConA was purchased from Sigma; actein and deoxyactein were purchased from ChromaDex, USA.
(§1) Animal: C57BL/6 mice, purchased from Beijing Huafukang Biotechnology Co., Ltd.
Grouping: 40 C57BL/6 mice, male, 18-20 g, after 1 day of adaptive breeding, mice were randomly divided into 4 groups of 10 animals in each group: ConA model group, triterpenoid saponin group, actein group, and deoxyactein group.
Model preparation and drug administration: weighed 150 mg of ConA powder, dissolved it in 40 mL of sterile PBS, left it at room temperature for 1 to 2 hours, and continued to gently shake intermittently to mix well. Low temperature ultrasound was used to improve dissolution (no more than 5 min each time) and avoided excessive foaming. After it was fully dissolved, the volume was adjusted to 50 mL to a concentration of 3 mg/mL and filtered the solution under pressure with a 0.45 μm filter. Mice were given a single intravenous injection at 25 mg/kg, with 100 μL per mouse. Took 4 mg of actein and deoxyactein, added 10 ml of sterile double-distilled water to dissolve to a concentration of 0.4 mg/mL. […]

[2] = tested on: ConA hepatitis mouse model; assay: Serum ALT and AST in ConA hepatitis mouse model; type: in vivo, C57BL/6 mice; conditions: serum 10 hours after ConA 15 mg/kg i.v.; gavage, extract 15 mg/kg, actein/deoxyactein 5 mg/kg; MEAN ± SEM
Experimental: The test materials and animals were the same as those in Experimental Example 1.
(§2) Grouping: C57BL/6 mice, male, 18-20 g, after 1 day of adaptive breeding, randomly divided into 5 groups: normal control group, ConA model group, triterpenoid saponin group, actein group and deoxyactein group.
(§3) Model preparation and drug administration: except the normal control group, mice were injected intravenously at a dose of ConA 15 mg/kg. The dosage of each group was the same as that of Experimental Example 1.
(1) The effects of drug administration in each group on serum ALT and AST of ConA mice were measured. Eight mice in each group were sacrificed under anesthesia 10 hours after ConA injection. Peripheral blood was taken, and serum was separated to detect ALT and AST.

[3] = tested on: ConA hepatitis mouse model; assay: Liver pathological damage in ConA hepatitis mouse model (HE staining); type: in vivo, C57BL/6 mice; conditions: liver 10 hours after ConA 15 mg/kg; compared with the ConA group
Experimental: as §2, §3
(2) The effects of drug administration in each group on liver pathological damage in ConA mice were examined. Three mice in each group were sacrificed under anesthesia 10 hours after ConA injection. The left lobe of the liver was taken, cut into a size of about 5 mm3, and placed in 10% formalin solution, and dehydrated, transparently impregnated with wax, embedded, sliced, and spread, observed after staining;

[4] = tested on: serum cytokines TNF-α, IL-12, IL-6, MCP-1, IFN-γ; assay: Serum inflammatory cytokine secretion in ConA mouse model; type: in vivo, C57BL/6 mice; conditions: MEAN ± SEM; for IL-6 / IL-12 / MCP-1 / TNF-α: serum 3 hours after ConA injection; for IFN-γ: serum 10 hours after ConA injection
Experimental: as §2, §3
(3) The effect of each group of drugs on serum cytokine secretion of ConA mice was examined. Six mice in each group. Peripheral blood was collected 3 hours after ConA injection and serum was separated to detect the secretion of cytokines TNF-α, IL-12, IL-6 and MCP-1. Serum was separated 10 hours after ConA injection to detect cell factor IFN-γ secretion.

[5] = tested on: mouse bone marrow-derived macrophages (BMDM); assay: IL-12 and TNF-α secretion by LPS-stimulated macrophages (BMDM); type: cell-based, C57BL/6 mice; conditions: ELISA
From the text: Test materials: LPS was purchased from Sigma; actein and deoxyactein were purchased from American ChromaDex; FBS was purchased from American PAA; DMEM high glucose medium; macrophage colony-stimulating factor (M-CSF) was purchased from PeproTech company; ELISA kit was purchased from BD company of the United States.
as §1
Isolation and culture of mouse bone marrow-derived macrophages (BMDM): after anesthesia of C57BL/6 mice, the mouses 2 pairs of femur and tibia were aseptically separated, and the bone marrow cells were flushed into a sterile flow tube using a 2 mL syringe with sterile PBS. Repeatedly pipetted into a bone marrow single cell suspension. After centrifugation, bone marrow cells were harvested, and 10 mL of complete medium containing 10% FBS, 1% glutamine, 1% double antibiotics (anti-penicillin, anti-streptomycin), and 10 ng/mL M-CSF were added to […] cell culture dish to culture at 37° C. After 4 days, the above fresh medium was changed, and macrophages with large volume, adherent growth, and mature differentiation were observed under the microscope on the 7th day. The cells were scraped off with a cell scraper, and repeatedly blown and mixed to form a single cell suspension, and then seeded in a 96-well plate at 1×10^5 cells/well.
BMDM cells induced activation and drug treatment: BMDM cells were treated with different doses of actein and deoxyactein, and 100 ng/mL LPS was given to stimulate cells 1 h later to simulate the activation of macrophages by bacterial infection. The cell supernatant was collected 4 hours later, and cytokine secretion was detected by ELISA.

CD45+CD3-NK1.1+ NK cells = assay: IFN-γ expression in NK cells; type: cell-based, C57BL/6 mice; conditions: bone marrow cells; actein 62.5 ng/mL, deoxyactein 250 ng/mL; PMA + ionomycin 5 h; flow cytometry; PMA + ionomycin group 42.1 ± 2.7
Experimental: Test materials: CD45-PE, CD3-FITC, NK1.1-APC antibody, Intracellular Fixation & Permeabilization Buffer Set, and Cell Stimulation Cocktail were purchased from eBioscience.
as §1
Bone marrow single cell suspension preparation: after anesthesia of C57BL/6 mice, the 2 pairs of femur and tibia of the mouse were separated aseptically, the sterile bone marrow cells were pipetted into a sterile flow tube with a 2 mL syringe and sterile PBS to obtain bone marrow single cell suspension. After centrifugation, bone marrow cells were harvested, and 1.5 mL of complete medium containing 10% FBS, 1% glutamine, and 1% double antibiotics (anti-penicillin, anti-streptomycin) were added.
Intracellular staining after drug administration and NK cell induction activation: cells were treated with actein of intermediate concentration of 62.5 ng/mL and deoxyactein at a concentration of 250 ng/mL, and the cells were stimulated with Cell Stimulation Cocktail (containing PMA, ionomycin and protein transport inhibitors) for 5 h. Surface staining was performed with CD45-PE, CD3-FITC, NK1.1-APC antibodies, intracellular staining was performed with […] antibodies, and the percentage of positive cells expressing IFN-γ in CD45^+CD3^−NK1.1^+ NK cells was detected by flow cytometry.

[6] = tested on: CD45+CD3+NK1.1+ NKT cells; assay: IFN-γ expression in NKT cells; type: cell-based, C57BL/6 mice; conditions: bone marrow cells; actein 62.5 ng/mL, deoxyactein 250 ng/mL; PMA + ionomycin 5 h; flow cytometry; PMA + ionomycin group 7.1 ± 0.7
From the text: Test material: same as Experimental Example 9.
Animal: C57BL/6 mice, purchased from Beijing Huafukang Biotechnology Co., Ltd
Bone marrow single cell suspension preparation: same as Experimental Example 9.
Drug treatment and intracellular staining after NKT cell induction activation: same as Experimental Example 9. Flow cytometry was used to detect the percentage of positive cells expressing IFN-γ in CD45^+CD3^+NK1.1^+ NKT cells.

CD3+CD4+ T cells = assay: IFN-γ expression in CD4+ T lymphocytes; type: cell-based, C57BL/6 mice; conditions: spleen cells; actein 62.5 ng/mL, deoxyactein 250 ng/mL; PMA + ionomycin 5 h; PMA + ionomycin group 3.8 ± 0.6
Experimental: (§4) Test materials: CD3-PE antibodies were purchased from BD Company in the United States, and CD4-FITC and CD8-PerCP antibodies were purchased from eBioscience Company; the remaining required reagents were the same as those in Experimental Example 9.
as §1
(§5) Preparation of spleen single cell suspension: after anesthesia of C57BL/6 mice, isolated the spleen of the mouse, placed the spleen in a sterile petri dish with 4 mL of PBEB added, grinded the spleen with a glass frosted surface, and filtered with a sterile 400 mesh filter. The spleen cells were placed in a flow tube, and the supernatant was discarded after centrifugation. After adding 2 mL of RBC Lysis Buffer to lyse at room temperature for 15 minutes, the supernatant was discarded by centrifugation to harvest the spleen cells. Then added 1.5 mL of complete medium containing 10% FBS, 1% glutamine, and 1% double antibiotics (anti-penicillin, anti-streptomycin), and mixed well by repeated pipetting.
(§6) Drug treatment and intracellular staining after T cell induction activation: cells were treated with 62.5 ng/mL actein and 250 ng/mL deoxyactein in a medium concentration, and Cell Stimulation Cocktail (containing PMA, ionomycin and protein transport inhibitor) was added to stimulate the cells for 5 h. […]

CD3+CD8+ T cells = assay: IFN-γ expression in CD8+ T lymphocytes; type: cell-based, C57BL/6 mice; conditions: spleen cells; actein 62.5 ng/mL, deoxyactein 250 ng/mL; PMA + ionomycin 5 h; PMA + ionomycin group 14.5 ± 1.0
Experimental: as §4, §1, §5, §6

[7] = 25 ng/mL, LPS 100 ng/mL, 4 hours
[8] = 50 ng/mL, LPS 100 ng/mL, 4 hours
[9] = 125 ng/mL, LPS 100 ng/mL, 4 hours
[10] = 250 ng/mL, LPS 100 ng/mL, 4 hours
[11] = 500 ng/mL, LPS 100 ng/mL, 4 hours
[12] = 2.5 ng/mL, LPS 100 ng/mL, 4 hours
[13] = 12.5 ng/mL, LPS 100 ng/mL, 4 hours
[14] = 62.5 ng/mL, LPS 100 ng/mL, 4 hours
[15] = 312.5 ng/mL, LPS 100 ng/mL, 4 hours

SMILES	survival rate [1]	ALT [2]	AST [2]	liver pathological damage (HE staining, FIG. 2) [3]	IL-6 [4]	IL-12 [4]	MCP-1 [4]	TNF-α [4]	IFN-γ [4]	IFN-γ+ (CD45+CD3-NK1.1+ NK cells)	IFN-γ+ [6]	IFN-γ+ (%), CD4+T cell (CD3+CD4+ T cells)	IFN-γ+ (%), CD8+T cell (CD3+CD8+ T cells)	also measured
CC(=O)O[C@@H]1C[C@@]23C[C@@]24CC[C@H](O[C@@H]2OC[C@@H](O)[C@H](O)[C@H]2O)C(C)(C)[C@@H]4CC[C@H]3[C@]2(C)C[C@@H]3O[C@]4(C[C@@H](C)[C@@H]3[C@@]12C)OC[C@@]1(C)O[C@@H]41 [Deoxyactein, deoxyactein]	40%	144.4 ± 68.5 U/L	390.8 ± 98.2 U/L	large pieces of hepatocyte necrosis was significantly reduced and leukocyte infiltration was reduced	1406 ± 134.1 pg/mL	190.5 ± 22.5 pg/mL	4741 ± 665.7 pg/mL	394.4 ± 41.8 pg/mL	245.3 ± 56 pg/mL	29.5 ± 3.5 %	2.2 ± 0.4 %	2.0 ± 0.7%	12.1 ± 1.3%	IL-12 [5, 7]: 244 ± 2.8 pg/mL; TNF-α [5, 7]: 2529 ± 121.3 pg/mL; IL-12 [5, 8]: 177.8 ± 12.5 pg/mL; TNF-α [5, 8]: 2321 ± 97.4 pg/mL; IL-12 [5, 9]: 142.3 ± 6.8 pg/mL; TNF-α [5, 9]: 2440 ± 84.8 pg/mL; IL-12 [5, 10]: 88.1 ± 22.3 pg/mL; TNF-α [5, 10]: 2305 ± 76.8 pg/mL; IL-12 [5, 11]: 42.2 ± 23.7 pg/mL; TNF-α [5, 11]: 2077 ± 43.8 pg/mL
CC(=O)O[C@@H]1C[C@@]23C[C@@]24CC[C@H](O[C@@H]2OC[C@@H](O)[C@H](O)[C@H]2O)C(C)(C)[C@@H]4CC[C@H]3[C@]2(C)C[C@@H]3O[C@]4(C[C@@H](C)[C@@H]3[C@@]12C)O[C@H](O)[C@@]1(C)O[C@@H]41 [Actein, actein]	60%	39.8 ± 11.1 U/L	212 ± 33 U/L	large pieces of hepatocyte necrosis was significantly reduced and leukocyte infiltration was reduced	792 ± 48 pg/mL	22 ± 1.9 pg/mL	1832 ± 209.7 pg/mL	173 ± 18.2 pg/mL	116.2 ± 34.8 pg/mL	33.0 ± 2.2 %	3.5 ± 0.6 %	3.1 ± 0.6%	14.3 ± 0.7%	IL-12 ([5]; 0.5 ng/mL, LPS 100 ng/mL 1 h later, supernatant after 4 hours, LPS group 226.6 ± 26.6): 194.5 ± 22.3 pg/mL; TNF-α ([5]; 0.5 ng/mL, LPS 100 ng/mL 1 h later, supernatant after 4 hours, LPS group 2891 ± 57): 2555 ± 62.3 pg/mL; IL-12 [5, 12]: 136.3 ± 22.8 pg/mL; TNF-α [5, 12]: 2483 ± 77.3 pg/mL; IL-12 [5, 13]: 88.5 ± 10.6 pg/mL; TNF-α [5, 13]: 2327 ± 77.3 pg/mL; IL-12 [5, 14]: 48.2 ± 21.4 pg/mL; TNF-α [5, 14]: 2056 ± 49.2 pg/mL; IL-12 [5, 15]: 8 ± 0.8 pg/mL; TNF-α [5, 15]: 2062 ± 49 pg/mL

— US11052099B2, “Use of cimicifugae rhizoma triterpenoid saponin extract, actein, and deoxyactein” (BEIJING DITAN HOSPITAL, CAPITAL MEDICAL UNIVERSITY, priority 2017, dated 2021)
